# Data reported in publication PMC10607054 (International Journal of Molecular Sciences, 2023).
# Where two headings read alike, the source gives them in different places.
# Assays:
# [1] = biological target: T1, PPARγ ligand-binding domain (Homo sapiens, UniProt P37231); assay: LanthaScreen TR-FRET PPARγ Coactivator Assay Kit (binding to PPARγ LBD); format: biochemical
# T1 construct: PPARγ-LBD was added to the compounds; purchased Life Technologies Corporation
# T1 sequence (P37231 238-503 limits assumed): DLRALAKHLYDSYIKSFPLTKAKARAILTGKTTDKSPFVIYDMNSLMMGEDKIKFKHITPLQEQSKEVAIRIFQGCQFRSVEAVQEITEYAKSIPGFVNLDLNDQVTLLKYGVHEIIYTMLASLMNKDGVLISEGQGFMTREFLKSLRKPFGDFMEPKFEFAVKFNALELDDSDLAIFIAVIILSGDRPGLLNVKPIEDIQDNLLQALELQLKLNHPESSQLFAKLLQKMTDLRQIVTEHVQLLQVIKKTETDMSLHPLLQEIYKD
# Experimental: A PPARγ receptor binding assay was performed using the LanthaScreen™ TR-FRET PPARγ Coactivator Assay Kit (Life Technologies Corporation, Grand Island, NY, USA) following the manufacturer’s protocol. Briefly, PPARγ-LBD was added to the compounds, followed by the addition of the antibody (Tb-anti-GST) and a mixture of peptide (Fluorescein-TRAP220/DRIP-2). The reaction mixture was incubated at room temperature for 2 h or overnight.
# [2] = tested on: PPAR-responsive element (PPRE); assay: PPRE-driven (J3TKpGL3, apo-AII promoter) Dual-Luciferase reporter assay in melanoma cells; format: cell-based; settings: 10^−4 M, 40 h, human melanoma cells WM239A and A375P; vs non-ligand stimulated control
# Experimental: The transcriptional activation of the PPRE promoter was tested using the J3TKpGL3 reporter plasmid, which contains a luciferase gene driven by the PPAR-responsive element (PPRE), which consists of three copies of the J site from the apo-AII gene promoter. The activation of PPAR elements was evaluated in melanoma cells following stimulation with a Firefly–Renilla Dual-Luciferase Reporter System (Promega, Madison, WI, USA). Experiments were carried out using human melanoma line WM239A and A375P (Trust Functional Genomics Cell Bank, London, UK) cells cultured in RPMI culture medium (ThermoFisher Scientific, Waltham, MA, USA) supplemented with 10% fetal bovine serum (EURx, Gdansk, Poland) at 37 °C, with a 5% CO2 content. […] Luciferase activity was measured using a commercial kit (Luciferase Assay System, Promega) according to the instructions of the supplier and assessed in a chemiluminometer (Synergy HT; Bio-Tek, Winooski, VT, USA)) using the Dual-Reporter Luciferase Assay System (Promega, Madison, WI, USA).
# [3] = biological target: T2, AhR (Homo sapiens, UniProt P35869); assay: cell-based Human AhR Reporter Assay System (luciferase)
# T2 construct: purchased INDIGO Biosciences
# T2 sequence (P35869 11-848): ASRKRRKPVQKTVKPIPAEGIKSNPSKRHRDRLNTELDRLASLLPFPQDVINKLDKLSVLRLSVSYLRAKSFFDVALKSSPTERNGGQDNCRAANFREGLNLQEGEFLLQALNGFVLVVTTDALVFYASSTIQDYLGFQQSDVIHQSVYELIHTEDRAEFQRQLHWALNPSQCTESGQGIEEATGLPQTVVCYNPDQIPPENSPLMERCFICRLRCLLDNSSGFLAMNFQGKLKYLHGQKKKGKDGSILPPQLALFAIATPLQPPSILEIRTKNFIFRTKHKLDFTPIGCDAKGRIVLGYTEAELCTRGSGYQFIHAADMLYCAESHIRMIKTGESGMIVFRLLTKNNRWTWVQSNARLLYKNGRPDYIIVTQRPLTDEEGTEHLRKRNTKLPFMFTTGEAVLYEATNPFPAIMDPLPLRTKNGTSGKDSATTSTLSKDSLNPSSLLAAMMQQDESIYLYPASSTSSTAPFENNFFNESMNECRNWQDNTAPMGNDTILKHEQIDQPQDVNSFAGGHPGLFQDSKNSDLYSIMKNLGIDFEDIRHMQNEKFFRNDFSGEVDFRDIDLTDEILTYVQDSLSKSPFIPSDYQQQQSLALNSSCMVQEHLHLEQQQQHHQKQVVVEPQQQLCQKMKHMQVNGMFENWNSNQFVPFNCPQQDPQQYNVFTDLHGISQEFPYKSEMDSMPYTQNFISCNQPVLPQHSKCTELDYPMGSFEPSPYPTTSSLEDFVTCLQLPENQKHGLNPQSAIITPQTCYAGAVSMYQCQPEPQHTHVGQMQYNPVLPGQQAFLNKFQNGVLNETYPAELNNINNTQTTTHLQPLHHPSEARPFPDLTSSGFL
# Experimental: Briefly, the reporter cells were recovered using the cell recovery medium for 5 h. […] Luciferase detection reagent was added after discarding the media and luminescence was measured using a Citation 5 Cell Imaging Multi-Mode Reader (BioTek, Winooski, VT, USA).
# [4] = LanthaScreen TR-FRET PPARγ coactivator assay, PPARγ LBD, two independent dose responses, 3 to 4 replicas per assay, read-out: EC50 (M) PPARγ
# [5] = value in Figure 3A, representative experiment, read-out: EC50 (PPARγ, representative dose response, Figure 3A)
# [6] = Human AhR Reporter Assay System, two independent dose responses, 3 to 4 replicas per assay, mean ± spread (n = 2), read-out: EC50 (M) AhR
# [7] = value in Figure 1, representative experiment, read-out: EC50 (AhR, representative dose response, Figure 1)
SMILES,"EC50 [1, 4] [M]","EC50 [1, 5] [M]","stimulation of transcriptional activity of (PPRE)3-containing ApoA-II gene promoter (luciferase, RLU) [2]","EC50 [3, 6] [M]","EC50 [3, 7] [M]","EC50 ([1]; EC50 (M) PPARγ, LanthaScreen TR-FRET PPARγ coactivator assay, PPARγ LBD, two independent dose responses, 3 to 4 replicas per assay) [M]","EC50 ([1]; EC50 (PPARγ, representative dose response, Figure 3A), value in Figure 3A, representative experiment) [M]","EC50 ([3]; EC50 (AhR, representative dose response, Figure 1), value in Figure 1, representative experiment) [M]","EC50 ([3]; EC50 (M) AhR, Human AhR Reporter Assay System, two independent dose responses, 3 to 4 replicas per assay, mean ± spread (n = 2)) [M]"
"COc1cc2c(CCNC(C)=O)c[nH]c2cc1O [6-Hydroxymelatonin, 6-hydroxymelatonin]",0.0037,0.0001,statistically significant stimulation,3.1e-05,3.3e-05,–,–,–,–
"N[C@@H](Cc1c[nH]c2ccc(O)cc12)C(=O)O [5(OH)tryptophan, 5-hydroxytryptophan]",–,–,statistically significant stimulation,–,–,–,–,–,–
"COc1ccc(NC=O)c(C(=O)CCNC(C)=O)c1 [AFMK, N^1-acetyl-N^2-formyl-5-methoxykynuramine]",0.00028,0.00011,statistically significant stimulation,4.4e-05,7.5e-05,–,–,–,–
"COc1ccc2[nH]cc(CCN)c2c1 [5-MTT, 5-methoxytryptamine]",–,–,–,–,–,3e-05,6.3e-05,0.0005,0.00029
"COc1ccc2[nH]cc(CCNC(C)=O)c2c1 [Melatonin, N-acetyl-5-methoxytryptamine, reference compound]",0.0012,0.00095,statistically significant stimulation,–,–,–,–,–,–
